# Results published in patent publication US10183047B2, “Chromium-containing compositions in combination with Phyllanthus emblica and shilajit having synergistic effects for improving endothelial function and cardiovascular health” (Natreon, Inc., priority 2014, dated 2019).
# Key:
# Assay type in all cases: in vivo, human
# lipid profile [1] = assay: Lipid profile (TC, HDL-C, LDL-C, TG), metabolic syndrome subjects
# Description: (§1) All the subjects had undergone complete physical examination, safety lab evaluations at baseline and at the end of the treatment. Samples were collected after an overnight fast of 12 hrs after the last dose of medication for determination of hemoglobin, glycosylated hemoglobin (HbA1c), blood urea, serum creatinine, liver function, lipid profile (Total cholesterol, High density lipoprotein cholesterol (HDL-C), low density lipoprotein cholesterol (LDL-C) using appropriate standard techniques.
# Patients included in the study, were of either gender, aged 30-68 years, having endothelial dysfunction defined as ≤6% change in reflection index (RI) on post salbutamol challenge test and central obesity as defined by The International Diabetes Federation guidelines, dated 2006, and any two of the following conditions: […]
# (§2) Subjects were reviewed for follow up at 4 weeks, 8 and 12 weeks of therapy. At each visit they were evaluated for efficacy and safety. Pharmacodynamic evaluation for endothelial function was conducted at baseline and end of treatment. Blood samples were collected for evaluation of biomarkers before and at end of treatment. Safety lab investigations for hematological, hepatic and renal biochemical parameters were conducted before and at the end of the study and also as and when required (in case of any adverse drug reaction (ADR)). Subjects were enquired for the presence of ADR and the same was recorded in the case report form. Compliance to therapy was assessed by pill count method.
# Assessment of endothelial function, biomarkers, safety parameters and primary and secondary efficacy parameters and data analysis were performed as described under the study with type 2 diabetic subjects in Example 1.
# (§3) When the results with Crominex® 3+ in the above two examples were highly significant, especially with the 400 mcg once daily dose in type 2 diabetics, two more clinical studies (EXAMPLES 3 & 4) were conducted at the same institute, following the same methodology as described earlier, on the individual components of Crominex® 3+, i.e., chromium chloride and Phyllanthus emblica+Shilajit, and other chromium supplements available in the market, i.e., chromium picolinate, chromium polynicotinate and chromium dinicocysteinate, in type 2 diabetics as well as in subjects with metabolic syndrome symptoms.
# fasting plasma glucose [2] = assay: Fasting plasma glucose, metabolic syndrome subjects
# Description: (§4) Patients included in the study, were of either gender, aged 30-68 years, having endothelial dysfunction defined as ≤6% change in reflection index (RI) on post salbutamol challenge test and central obesity as defined by The International Diabetes Federation guidelines, dated 2006, and any two of the following conditions:
# (§5) After screening, all the eligible subjects were randomized to receive either one of the three treatments orally for duration of 12 weeks: group 1—one capsule of Crominex®3+ 200 mcg once daily; group 2—one capsule 400 mcg once daily; group 3—one capsule of Placebo once daily.
# as §2, §3
# lipid profile [3] = assay: Lipid profile (TC, HDL-C, LDL-C, TG, VLDL-C), type 2 diabetics
# Experimental: (§6) The present clinical study is a prospective, randomized, double blind, placebo-controlled study. Patients of either sex, aged 30-65 years, fasting plasma glucose of 110-126 mg/dl, a glycosylated hemoglobin (HbA1c) between 6.5% and 8% and taking stable dose of anti-diabetic treatment (metformin 1500-2000 mg/day) for the past 8 weeks prior to the screening visit; and having endothelial dysfunction defined as ≤6% change in reflection index (RI) on post salbutamol challenge test were included in the study. Patients with severe uncontrolled hyperglyceamia, uncontrolled hypertension, cardiac arrhythmia, impaired hepatic or renal function, history of malignancy or stroke, smoking, chronic alcoholism, any other serious disease requiring active treatment and treatment with any other herbal supplements, were excluded from the study.
# (§7) After screening, all the eligible subjects were randomized to receive either one of the three treatments orally for duration of 12 weeks—Group1—one capsule of Crominex®3+, 200 mcg once daily, Group 2—one capsule Crominex®3+, 400 mcg once daily; Group 3—one capsule of placebo once daily.
# as §2, with “Subjects were required for follow” for “Subjects were reviewed for follow”, “up at 4, 8 and” for “up at 4 weeks, 8 and”, “conducted at every visit. Blood samples” for “conducted at baseline and end of treatment. Blood samples”, “and at the end of” for “and at end of”, “drug reaction (ADR). Subjects were” for “drug reaction (ADR)). Subjects were”
# as §1, §3
# [4] = tested on: Glycosylated Hemoglobin A1c (HbA1c); assay: Glycosylated hemoglobin A1c, type 2 diabetics
# Experimental: as §6, §7
# as §2, with “Subjects were required for follow” for “Subjects were reviewed for follow”, “up at 4, 8 and” for “up at 4 weeks, 8 and”, “conducted at every visit. Blood samples” for “conducted at baseline and end of treatment. Blood samples”, “and at the end of” for “and at end of”, “drug reaction (ADR). Subjects were” for “drug reaction (ADR)). Subjects were”
# as §1, §3
# fasting plasma glucose [5] = assay: Fasting plasma glucose, type 2 diabetics
# Experimental: as §3
# [6] = Blood pressure, metabolic syndrome subjects; settings: metabolic syndrome subjects (Example 4), chromium products 400 mcg
# Description: as §4, §5, §2, §3
# [7] = tested on: high sensitivity C-reactive protein (hsCRP); assay: hsCRP by ELISA, type 2 diabetics
# Experimental: as §6, §7
# as §2, with “Subjects were required for follow” for “Subjects were reviewed for follow”, “up at 4, 8 and” for “up at 4 weeks, 8 and”, “conducted at every visit. Blood samples” for “conducted at baseline and end of treatment. Blood samples”, “and at the end of” for “and at end of”, “drug reaction (ADR). Subjects were” for “drug reaction (ADR)). Subjects were”
# Nitric oxide, MDA, Glutathione and levels were estimated spectrophotometrically as follows. Malondialdehyde (MDA) levels were determined as described in Vidyasagar, et al., “Oxidative stress and antioxidant status in acute organophosphorous insecticide poisoning,” Indian J. Pharmacol. (April 2004) 36(2): 76-79. Glutathione levels were determined as described in G. L. Ellman, Arch. Biochem. Biophys. (1959) 82: 70-77 (original determination). Nitric oxide levels were estimated spectrophotometrically as described in Miranda, et al., “A Rapid, Simple Spectrophotometric Method for Simultaneous Detection of Nitrate and Nitrite,” NITRIC OXIDE: Biology and Chemistry (2001) Vol. 5, No. 1, pp. 62-71. hsCRP (high sensitivity C-reactive protein) was determined by ELISA method.
# as §3
# [8] = metabolic syndrome subjects (Example 4), chromium products 400 mcg, after 12 weeks of treatment
# [9] = metabolic syndrome subjects (Example 4), chromium products 400 mcg, pre-treatment
# [10] = type 2 diabetics (Example 3), chromium products 400 mcg, 12 weeks of treatment
# [11] = type 2 diabetics (Example 3), chromium products 400 mcg, post-treatment, 12 weeks
# [12] = type 2 diabetics (Example 3), chromium products 400 mcg, pre-treatment
substance,measurement,setting,value
chromium picolinate,HDL,"lipid profile [1]; MS, 400 mcg",2.1%
same,LDL,"lipid profile [1]; MS, 400 mcg",−2.19%
same,TC,"lipid profile [1]; MS, 400 mcg",−1.18%
same,TG,"lipid profile [1]; MS, 400 mcg",−1.07%
same,"LDL-C, mean percentage change","lipid profile [1]; mean percentage change after 12 weeks of treatment, 400 mcg, Example 4",-2.19%
same,HDL-C Post Tt,lipid profile [1]; [8],37.84 ± 4.45@ mg/dl
same,LDL-C Post Tt,lipid profile [1]; [8],111.55 ± 12.58 mg/dL
same,Mean percentage change in HDL-C,lipid profile [1]; [8],2.10 ± 2.84%
same,Mean percentage change in Total Cholesterol,lipid profile [1]; [8],−1.18 ± 0.90%
same,Mean percentage change in Triglycerides,lipid profile [1]; [8],−1.07 ± 1.20%
same,Total Cholesterol Post Tt,lipid profile [1]; [8],182.84 ± 12.60 mg/dL
same,Triglycerides Post Tt,lipid profile [1]; [8],167.26 ± 10.71 mg/dL
same,HDL-C Pre Tt,lipid profile [1]; [9],37.11 ± 4.32 mg/dL
same,LDL-C Pre Tt,lipid profile [1]; [9],114.13 ± 12.80 mg/dL
same,Total Cholesterol Pre Tt,lipid profile [1]; [9],185.05 ± 13.03 mg/dL
same,Triglycerides Pre Tt,lipid profile [1]; [9],169.11 ± 11.02 mg/dL
same,Fasting Glucose,"fasting plasma glucose [2]; MS, 400 mcg",−4.27%
same,Fasting Plasma Glucose Post Tt,fasting plasma glucose [2]; [8],96.63 ± 13.11 @
same,Fasting Plasma Glucose Pre Tt,fasting plasma glucose [2]; [9],100.95 ± 14.05 ^
same,HDL,"lipid profile [3]; DM, 400 mcg",2.96%
same,LDL,"lipid profile [3]; DM, 400 mcg",−2.35%
same,TC,"lipid profile [3]; DM, 400 mcg",−0.99%
same,TG,"lipid profile [3]; DM, 400 mcg",−0.58%
same,Mean percentage change in HDL-C,lipid profile [3]; [10],2.96 ± 3.38 @NS %
same,Mean percentage change in LDL-C,lipid profile [3]; [10],−2.35 ± 1.81 @NS %
same,Mean percentage change in Total Cholesterol,lipid profile [3]; [10],−0.99 ± 1.08NS %
same,Mean percentage change in Triglycerides,lipid profile [3]; [10],−0.58 ± 1.04 NS %
same,HDL-C Post Tt,lipid profile [3]; [11],39.84 ± 1.12 $ mg/dl
same,LDL-C Post Tt,lipid profile [3]; [11],119.07 ± 18.46 mg/dL
same,Total Cholesterol Post Tt,lipid profile [3]; [11],194.68 ± 17.93 $ mg/dl
same,Triglycerides Post Tt,lipid profile [3]; [11],178.84 ± 8.45 $ mg/dl
same,HDL-C Pre Tt,lipid profile [3]; [12],38.74 ± 1.69 mg/dL
same,LDL-C Pre Tt,lipid profile [3]; [12],121.92 ± 18.50 mg/dL
same,Total Cholesterol Pre Tt,lipid profile [3]; [12],196.63 ± 18.07 mg/dL
same,Triglycerides Pre Tt,lipid profile [3]; [12],179.89 ± 8.65 mg/dL
same,HbA1c (Abs.),"[4]; DM, 400 mcg, absolute change",−0.02
same,Absolute change in HbA1c,"[4]; type 2 diabetics (Example 3), chromium products 400 mcg, after 12 weeks treatment",−0.02 ± 0.08 #NS %
same,HbA1c Post Tt,[4]; [11],7.03 ± 0.15 NS %
same,HbA1c Pre Tt,[4]; [12],7.05 ± 0.11%
same,Fasting Glucose,"fasting plasma glucose [5]; DM, 400 mcg",1.2%
same,Fasting Plasma Glucose Post Tt,fasting plasma glucose [5]; [11],134.84 ± 6.78 NS mg/dL
same,Fasting Plasma Glucose Pre Tt,fasting plasma glucose [5]; [12],133.21 ± 8.27 mg/dL
same,Diastolic blood pressure Post Tt,[6]; after 12 weeks of treatment,78.1 ± 2.26 NS mmHg
same,Systolic blood pressure Post Tt,[6]; after 12 weeks of treatment,121.5 ± 4.15 NS mmHg
same,Diastolic blood pressure Pre Tt,[6]; pre-treatment,79.2 ± 3.58 mmHg
same,Systolic blood pressure Pre Tt,[6]; pre-treatment,123.1 ± 5.39 mmHg
same,hsCRP,"[7]; DM, 400 mcg",−18.9%
same,Mean percentage change in hsCRP,"[7]; type 2 diabetics (Example 3), chromium products 400 mcg, 12 week treatment",−18.90 ± 7.04@$NS %
same,hsCRP Post Tt,[7]; [11],2.22 ± 0.64 mg/L
same,hsCRP Pre Tt,[7]; [12],2.70 ± 0.63 mg/L
